From PMC11525138 (The Journal of Biological Chemistry, 2024) come the findings set out here.

Where two headings read alike, the source gives them in different places.

Test [1] deals with T1, NanJGH33 (Clostridium perfringens, UniProt A0A0H2YT71). The format is biochemical. The settings on record: pH 4.5.
Test [2] addresses T2, NanIGH33 (Clostridium perfringens, UniProt Q59310). The format is biochemical. The settings on record: pH 4.5.
Test [3] has as its target T3, NanHGH33 (Clostridium perfringens, UniProt P10481). It is filed as biochemical. The settings on record: pH 4.5.
For test [4], the target named is T1, NanJGH33. The format is biochemical.
In test [5] the test system is C. perfringens CP1. It is filed as cell-based, Clostridium perfringens. The note with it: for Doubling Time: without DANA 0.762; for k (rate constant) of exponential growth: without DANA 0.909 ± 0.098.
Test [6] deals with T3, NanHGH33. Put plainly: biochemical. The format is biochemical.
Test [7] has as its target T2, NanIGH33. It is filed as biochemical.
Test [8] addresses T2, NanIGH33. Put plainly: biochemical. It is filed as biochemical.
In test [9] the target is T3, NanHGH33. It is filed as biochemical.
For test [10], the target named is T1, NanJGH33. Nature of the test: biochemical. The format is biochemical.

T1 sequence (A0A0H2YT71 373-820 limits assumed): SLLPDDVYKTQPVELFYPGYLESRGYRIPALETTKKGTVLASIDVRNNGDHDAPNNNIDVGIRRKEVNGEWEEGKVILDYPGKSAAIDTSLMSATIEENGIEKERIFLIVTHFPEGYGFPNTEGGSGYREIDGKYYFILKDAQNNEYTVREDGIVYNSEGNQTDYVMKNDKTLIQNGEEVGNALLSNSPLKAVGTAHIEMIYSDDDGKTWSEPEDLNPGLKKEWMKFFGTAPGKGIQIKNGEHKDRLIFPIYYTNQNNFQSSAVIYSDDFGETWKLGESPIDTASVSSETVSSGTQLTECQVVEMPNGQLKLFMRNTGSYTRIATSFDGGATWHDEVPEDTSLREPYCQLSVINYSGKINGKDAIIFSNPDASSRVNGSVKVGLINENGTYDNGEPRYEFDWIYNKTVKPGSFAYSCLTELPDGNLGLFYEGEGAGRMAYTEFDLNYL
T2 sequence (Q59310 243-694 limits assumed): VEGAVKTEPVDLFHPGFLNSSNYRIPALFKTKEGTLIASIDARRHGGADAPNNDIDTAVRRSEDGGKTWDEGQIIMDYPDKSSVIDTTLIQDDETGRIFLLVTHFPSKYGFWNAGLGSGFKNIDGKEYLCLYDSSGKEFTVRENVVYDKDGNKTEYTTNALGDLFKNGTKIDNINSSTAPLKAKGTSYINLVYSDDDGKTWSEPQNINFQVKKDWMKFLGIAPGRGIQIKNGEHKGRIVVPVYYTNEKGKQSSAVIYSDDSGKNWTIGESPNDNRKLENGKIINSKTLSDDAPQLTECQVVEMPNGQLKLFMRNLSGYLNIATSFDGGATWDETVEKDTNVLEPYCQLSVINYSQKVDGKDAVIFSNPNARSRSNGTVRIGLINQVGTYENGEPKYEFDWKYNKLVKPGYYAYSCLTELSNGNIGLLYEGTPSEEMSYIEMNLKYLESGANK
T3 sequence (P10481 whole entry, looked up): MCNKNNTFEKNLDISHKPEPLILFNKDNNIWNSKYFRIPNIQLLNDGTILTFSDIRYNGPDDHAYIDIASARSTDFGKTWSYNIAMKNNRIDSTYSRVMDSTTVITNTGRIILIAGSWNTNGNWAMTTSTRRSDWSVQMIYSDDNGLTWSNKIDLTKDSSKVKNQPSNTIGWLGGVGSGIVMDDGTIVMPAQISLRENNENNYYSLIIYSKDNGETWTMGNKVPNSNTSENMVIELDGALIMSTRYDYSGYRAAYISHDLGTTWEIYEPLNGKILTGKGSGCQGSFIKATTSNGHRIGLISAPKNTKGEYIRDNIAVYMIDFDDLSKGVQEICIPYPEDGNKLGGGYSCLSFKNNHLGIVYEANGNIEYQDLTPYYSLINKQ

For `CC(=O)N[C@H]1[C@H]([C@H](O)[C@H](O)CO)O[C@@](O[C@H]2[C@@H](O)[C@@H](CO)O[C@@H](O[C@H]3[C@H](O)[C@@H](O)C(O)O[C@@H]3CO)[C@@H]2O)(C(=O)O)C[C@@H]1O` (stereo partly drawn) [3′-SL, 3′-sialyllactose], the figures for the “hydrolysis of substrate in competition assay (in words)” value in test [1], in test [2] and in test [3] were “processed both substrates very rapidly”, “roughly equal rates” and “hydrolyzed”, respectively.
The like results for `CC(=O)N[C@H]1[C@H]([C@H](O)[C@H](O)CO)O[C@@](OC[C@H]2O[C@@H](O[C@H]3[C@H](O)[C@@H](O)[C@H](O)O[C@@H]3CO)[C@H](O)[C@@H](O)[C@H]2O)(C(=O)O)C[C@@H]1O` [6′-SL, 6′-sialyllactose] were, in that order, “processed both substrates very rapidly”, “roughly equal rates” and “did not show any significant capacity to hydrolyze”.
In general, Ki refers to the equilibrium dissociation constant of an inhibitor or competing ligand from its target. Take `CC(=O)N[C@H]1[C@H]([C@H](O)[C@H](O)CO)OC(C(=O)O)=C[C@@H]1O` [DANA, N-acetyl-2,3-dehydro-2-deoxyneuraminic acid]: the “lactose released from 3′- and 6′-SL in the presence of inhibitor” value in test [4], in test [7] and in test [9] was “reduced the amount of lactose released” throughout. For the same compound, in test [5] (0.5% 3′SL as substrate, 1 mM DANA required for a clear effect), the “effect on growth of C. perfringens in the presence of 3′SL” value is listed as “reduce the growth”. For the same compound, the “Doubling Time” value in test [5] (3'SL + 0.01 mM DANA) is 0.571 h; in test [5] (3'SL + 0.1 mM DANA), 0.576 h; in test [5] (3'SL + 1 mM DANA), 1.725 h. The “k (rate constant) of exponential growth” value in test [5] (3'SL + 0.01 mM DANA) was determined as 1.214 ± 0.085; in test [5] (3'SL + 0.1 mM DANA), 1.202 ± 0.066; in test [5] (3'SL + 1 mM DANA), 0.402 ± 0.019. Besides, the “effect on C. perfringens consumption of 3′-SL” value in test [5] (24 h culture supernatants, HPAEC-PAD quantification) is recorded as “protect against C. perfringens consumption of 3′-SL”. For the same compound, the “reduction of growth of C. perfringens with glucose as the sole carbohydrate source” value in test [5] (glucose as sole carbohydrate source, data not shown) is given as “not”. For the same compound, the Ki in test [6] (pH 7, read-out: Ki) stood at 33.9 ± 4.4 µM; in test [8] (pH 6.5, read-out: Ki), 3.1 ± 0.5 µM; in test [10] (pH 6.8, read-out: Ki), 3.2 ± 0.3 µM.
In the case of `CCOC(=O)C1=C[C@@H](OC(CC)CC)[C@H](NC(C)=O)[C@@H](N)C1` [Oseltamivir, (3R,4R,5S)-4-acetamido-5-amino-3-(1-ethylpropoxy)-1-cyclohexene-1-carboxylic acid ethyl ester], in test [6], the inhibition constant Ki was above 100 µM and the “inhibition of NanHGH33 (in words)” value is given as “did not display any detectable inhibition”. Also, in test [8], the Ki is above 100 µM and the “inhibition of NanIGH33 (in words)” value is listed as “did not display any detectable inhibition”. Besides, in test [10], the Ki was above 100 µM and the “inhibition of NanJGH33 (in words)” value is “did not display any detectable inhibition”.
As for `CC(=O)N[C@H]1NC[C@H](C(=O)O)[C@H](O)[C@@H]1O` [Siastatin B, (3S, 4S, 5R, 6R)-6-(acetylamino)-4,5-dihydroxy-3-piperidinecarboxylic acid], the Ki in test [6] amounted to 125 ± 16.2 µM; in test [8], 10.7 ± 2 µM; in test [10], 13.3 ± 1.6 µM.
By Km is commonly meant the concentration of substrate that gives half-maximal velocity. By kcat is commonly meant the number of substrate molecules converted per active site and unit of time at saturation. In general, Vmax refers to the rate approached at saturating substrate. For the compound `CC(=O)N[C@H]1[C@H]([C@H](O)[C@H](O)CO)O[C@@](Oc2c[nH]c3ccc(Br)c(Cl)c23)(C(=O)O)C[C@@H]1O` [X-Neu5Ac, 5-bromo-4-chloro-3-indolyl α-D-N-acetylneuraminic acid], in test [6] (pH 7), the Km amounted to 280 ± 62.7 µM and the kcat came to 13.3 ± 1.2 s⁻¹. For the same compound, in [8] (pH 6.5), the Michaelis constant (Km) was 123 ± 25.4 µM, the Vmax was found to be 0.09 ± 0.01 µM/s and the turnover number (kcat) came out at 9.2 ± 0.6 s⁻¹. Also, in test [10], the “kcat/Km of NanJGH33 relative to NanHGH33” value is reported as around 3.6 fold and the “kcat/Km of NanJGH33 relative to NanIGH33” value is reported as “approximately 2 fold”. In addition, in [10] (pH 6.8), the Michaelis-Menten constant (Km) worked out at 87 ± 10.7 µM and the kcat came to 15.3 ± 0.6 s⁻¹.
For `CC(=O)N[C@H]1[C@H]([C@H](O)[C@H](O)CO)OC(C(=O)O)=C[C@@H]1N=C(N)N` [Zanamivir, 4-guanidino-2,4-dideoxy-2,3-dehydro-N-acetylneuraminic acid], in test [6], the Ki is above 100 µM and the “inhibition of NanHGH33 (in words)” value was “did not display any detectable inhibition”. In test [8], the inhibitory constant (Ki) was above 100 µM and the “inhibition of NanIGH33 (in words)” value is “did not display any detectable inhibition”. For the same compound, in test [10], the inhibitory constant (Ki) was above 100 µM and the “inhibition of NanJGH33 (in words)” value is “did not display any detectable inhibition”.
